Laboratory results reported in patent US5177082A, “Huperzines and analogs” (priority 1990, dated 1993).
Read-outs that look alike come from different tables or passages of the source.

Columns and labels:
pseudocholinesterase = biological target: T1, pseudocholinesterase (Rattus norvegicus, UniProt Q9JKC1); experiment: biochemical
T1 construct: 0.1 ml of rat blood serum; from tissue; host or cells: rat blood serum
Description: (§1) Red blood cell membranes of rats were used as the source for the true cholinesterase with a substrate concentration of 0.3 mM of S-acetylthiocholine iodide. The source for pseudocholinesterase was 0.1 ml of rat blood serum and the substrate was 0.4 mM S-butyrylthiocholine iodide. The Ellman colorimetric method was used to measure the enzyme activity. The percentage of enzyme activity remaining was plotted against negative logarithm (pI) of the drug concentration and the pI50 (the negative logarithm of the gram molecule concentration of the drug required to inhibit the enzyme activity 50%) was derived.

true cholinesterase = true cholinesterase (Rattus norvegicus, UniProt P37136); experiment: biochemical; set-up: Red blood cell membranes of rats; from tissue; host or cells: rat red blood cell membranes
Description: as §1

TA100 = experiment: Mutation test (Ames) TA100 + S9; conditions: 1500 μg/container
[1] = test system: In Vitro Rat Nerve/Diaphragm Muscle Contraction; experiment: In vitro phrenic nerve/diaphragm preparations of rats, enhancement of muscle contraction; conditions: for EC50: read-out: Enhancement of Muscle Contraction Amplitude, 50% Concentration; for Strength of Effect: relative to Huperzine A = 1.00
Description: 1. In Vitro Phrenic Nerve/Diaphragm Preparations of Rats.
After the fast decapitation of a rat, the thoracic cavity was opened and the right diaphragm with attached phrenic nerve was removed. After placing it in a Tyrode's solution (37° C. constant temperature), gassed with 95% oxygen+5% CO2, electrical stimulation (1-10 V, 0.5 ms, 1 c/10 s) of the phrenic nerve was used to produce muscle contraction. A transducer was used to record the contraction amplitude on a panel recorder. […].

[2] = test system: Sciatic Nerve/Tibialis Muscle Preparation; experiment: Anesthetized rat sciatic nerve/tibialis muscle preparation; assay type: in vivo; conditions: for minimal effective dose: Rattus norvegicus, iv, read-out: Lowest Effective Dosage for Enhancing Muscle Contraction
Description: (§3) Anesthesized Rat and Rabbit Sciatic Nerve/Tibialis Muscle Preparation
(§4) Anesthesia was produced in rats by ip injections of 30 mg/kg of pentobarbital and in rabbits by iv injections of 1 g/kg of urethane. Electric stimulation of the periphery of the sciatic nerve (5-10 V, 0.5 ms, 1 c/10 s) caused tibialis contraction which was recorded on smoked paper.

[3] = test system: Sciatic Nerve/Tibialis Muscle Preparation; experiment: Anesthetized rabbit sciatic nerve/tibialis muscle preparation; assay type: in vivo; conditions: rabbits; for minimal effective dose: Oryctolagus cuniculus, iv, read-out: Lowest Effective Dosage for Enhancing Muscle Contraction
Description: as §3, §4

Mice = conditions: mouse, in vivo
Rats = conditions: rat, in vivo
in vivo [4] = conditions: mouse, ip
in vivo [5] = conditions: rat, ip
myasthenia gravis = experiment: Double blind cross-over comparison of Huperzine A and neostigmine, 69 cases of myasthenia gravis; assay type: in vivo, human
Description: (§2) Patients affected with myasthenia gravis (MG) with typical clinical symptoms which improved after using neostigmine were the subjects for testing and verification. […] The injections were all given in the morning and on the morning prior to the injections anticholinesterase drugs were discontinued. Neither the patients nor the doctors knew which drug was being injected. Later, the symptoms, the duration of the improvements, if any, which were obtained by the drugs and the side effects were recorded.
(1) Comparison of the maintained times of the effects.

patients = experiment: Clinical side effects in patients with myasthenia gravis; assay type: in vivo, human
Description: as §2, with “verification. […] It was generally used for at least ten days and each dosage was 0.4-0.5 mg.” for “verification.”, “recorded. Based on these factors, the relative merits of the two drugs were established.” for “recorded.”

memory functions of rats = experiment: Memory function of preconditioned rats after 48 hours; assay type: in vivo, rat; conditions: 0.15 mg/kg, after 48 hours
Description: To evaluate the impact on the memory function, preconditioned animals going through 5 shock-free runs were used as learned animals. After 48 hours the drug-free (control) animals required 14.4±8.9 shocks to become learned.

[6] = test system: learning functions of rats; experiment: Y maze conditioned reflex test, learning process of rats; conditions: 0.08 mg/kg, iv
Description: Each animal was required to go through 10 successive shock-free runs to be classified as learned.

[7] = 0.4 mM S-butyrylthiocholine iodide, read-out: Inhibition of Cholinesterase (pI50), Blood serum (converted)
[8] = in vitro rat phrenic nerve/diaphragm, 37° C.
[9] = 0.3 mM S-acetylthiocholine iodide, read-out: Inhibition of Cholinesterase (pI50), Red Blood Cells (converted)

Chain of true cholinesterase (P37136-2 with tags, fused parts or gaps limits assumed): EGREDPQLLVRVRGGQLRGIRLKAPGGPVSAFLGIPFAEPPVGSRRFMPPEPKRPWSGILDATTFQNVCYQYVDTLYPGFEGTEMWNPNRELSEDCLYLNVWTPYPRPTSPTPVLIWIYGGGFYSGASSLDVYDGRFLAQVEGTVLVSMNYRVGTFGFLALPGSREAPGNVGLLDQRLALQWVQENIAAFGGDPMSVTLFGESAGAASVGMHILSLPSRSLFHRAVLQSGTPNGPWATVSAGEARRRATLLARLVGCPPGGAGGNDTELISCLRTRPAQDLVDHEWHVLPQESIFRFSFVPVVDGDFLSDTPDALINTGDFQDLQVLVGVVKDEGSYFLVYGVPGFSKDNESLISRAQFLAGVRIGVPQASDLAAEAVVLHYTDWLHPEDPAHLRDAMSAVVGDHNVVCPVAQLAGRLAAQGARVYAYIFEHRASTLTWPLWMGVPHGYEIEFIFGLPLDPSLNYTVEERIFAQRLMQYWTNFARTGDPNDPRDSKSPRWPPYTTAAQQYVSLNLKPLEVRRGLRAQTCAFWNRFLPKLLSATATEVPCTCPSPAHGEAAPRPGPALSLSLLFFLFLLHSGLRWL
T1 sequence (Q9JKC1 24-597): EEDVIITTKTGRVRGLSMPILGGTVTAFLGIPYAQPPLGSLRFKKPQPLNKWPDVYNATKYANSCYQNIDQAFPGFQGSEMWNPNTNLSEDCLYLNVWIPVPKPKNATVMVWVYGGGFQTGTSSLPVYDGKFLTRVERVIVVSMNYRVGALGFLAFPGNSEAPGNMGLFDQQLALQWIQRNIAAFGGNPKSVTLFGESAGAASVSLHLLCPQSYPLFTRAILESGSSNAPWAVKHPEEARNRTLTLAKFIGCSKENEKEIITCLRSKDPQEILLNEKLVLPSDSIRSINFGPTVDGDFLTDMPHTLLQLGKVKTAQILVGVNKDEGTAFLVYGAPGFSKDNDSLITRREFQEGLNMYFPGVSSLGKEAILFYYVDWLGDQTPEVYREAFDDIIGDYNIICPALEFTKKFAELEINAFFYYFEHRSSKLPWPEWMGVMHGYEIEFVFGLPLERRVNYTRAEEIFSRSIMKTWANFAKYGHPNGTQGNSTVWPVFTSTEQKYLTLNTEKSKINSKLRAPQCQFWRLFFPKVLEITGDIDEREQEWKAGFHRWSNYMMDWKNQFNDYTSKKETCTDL

Compound: CCC1[C@H]2C=C(C)C[C@]1(N)c1ccc(=O)[nH]c1C2 (stereo partly drawn) [11,12-dihydro-huperzine A, (5R, 9R)-5-amino-11-ethyl-5,6,9,10-tetrahydro-7-methyl-5,9-methanocycloocta[b]pyridin-2(1H)-one]
- IC50 (pseudocholinesterase; [7]): 12.6 µM
- IC50 (true cholinesterase): 0.631 µM

Compound: O=P1(N(CCCl)CCCl)NCCCO1 (stereo not shown) [Cyclophosphamide]
- reverse mutation colonies, TA100 + S9 (TA100): 566 ± 10

Compound: COc1ccc2c3c1O[C@H]1C[C@@H](O)C=C[C@@]31CCN(C)C2 [Galanthamine, reference compound]
- EC50 [1, 8]: 4.2 µM
- Strength of Effect [1]: 0.10
- minimal effective dose [2]: 0.5 mg/kg
- Strength of Effect ([2]; rat, in vivo): 1.0
- minimal effective dose [3]: 0.5 mg/kg
- Strength of Effect ([3]; galanthamine = 1.0): 1.0
- Inhibition of Cholinesterase (pI50), Blood serum (pseudocholinesterase): 4.9
- Toxic Strength (Mice): 0.13
- Toxic Strength (Rats): 1.22
- LD50 (in vivo [4]): 13.4 mg/kg
- LD50 (in vivo [5]): 22.9 mg/kg

Compound: CC1=C[C@H]2Cc3[nH]c(=O)ccc3[C@]3(C1)NCCC[C@H]23 [Huperzine B, (4aR, 5R, 10bR)-1,2,3,4,4a,5,6,10b-octahydro-12-methyl-5,10b-propeno-1,7-phenanthrolin-8(7H)-one]
- EC50 ([1]; Rattus norvegicus): 4.8 µM
- Strength of Effect [1]: 0.09
- IC50 (pseudocholinesterase): 200 µM
- IC50 (true cholinesterase): 0.501 µM

Compound: C/C=C1\[C@H]2C=C(C)C[C@]1(NC(C)=O)c1ccc(=O)[nH]c1C2 [N-acetyl huperzine A, (5R, 9R, 11E)-5-(acetylamino)-11-ethylidene-5,6,9,10-tetrahydro-7-methyl-5,9-methanocycloocta[b]pyridin-2(1H)-one]
- Inhibition of Cholinesterase, Blood serum (concentration found ineffective) (pseudocholinesterase): 1.1 × 10^-2 M ineffective
- IC50 (true cholinesterase; [9]): > 3160 µM

Compound: C/C=C1\[C@H]2C=C(C)C[C@]1(N(C)C)c1ccc(=O)[nH]c1C2 [N-dimethyl huperzine A, (5R, 9R, 11E)-11-ethylidene-5,6,9,10-tetrahydro-7-methyl-5-(dimethylamino)-5,9-methanocycloocta[b]pyridin-2(1H)-one]
- Inhibition of Cholinesterase, Blood serum (concentration found ineffective) (pseudocholinesterase; 0.4 mM S-butyrylthiocholine iodide): 1.2 × 10^-2 M ineffective
- IC50 (true cholinesterase): 158 µM

Compound: CC1=C[C@H]2Cc3[nH]c(=O)ccc3[C@@]3(C1)[C@@H]2CCCN3C [N-methyl huperzine B, (4aR, 5R, 10bR)-1,2,3,4,4a,5,6,10b-octahydro-1,12-dimethyl-5,10b-propeno-1,7-phenanthrolin-8(7H)-one]
- IC50 (pseudocholinesterase; [7]): 316 µM

Compound: C/C=C1\[C@H]2C=C(C)C[C@]1(N(C)C)c1ccc(=O)n(C)c1C2 [N-trimethyl-huperzine A, (5R, 9R, 11E)-11-ethylidene-5,6,9,10-tetrahydro-1,7-dimethyl-5-(dimethylamino)-5,9-methanocycloocta[b]pyridin-2(1H)-one]
- Inhibition of Cholinesterase, Blood serum (concentration found ineffective) (pseudocholinesterase): 1.1 × 10^-2 M ineffective
- IC50 (true cholinesterase; [9]): 316 µM

Compound: CN(C)C(=O)Oc1cccc([N+](C)(C)C)c1 [Neostigmine, reference compound]
- EC50 ([1]; Rattus norvegicus): 0.272 µM
- Strength of Effect [1]: 1.61
- IC50 (pseudocholinesterase; [7]): 3.55 µM
- action time of neostigmine longer than Huperzine A, % (myasthenia gravis): 8.69%
- action time of neostigmine longer than Huperzine A, cases (myasthenia gravis): 6 cases
- Abdominal pains, % (patients; control group): 7.4%
- Abdominal pains, number of times (patients; control group): 26
- Blurred vision, % (patients; control group): 9.7%
- Blurred vision, number of times (patients; control group): 24
- Dizziness, % (patients; control group): 19.5%
- Dizziness, number of times (patients; control group): 68
- Drooling, % (patients; control group): 1.2%
- Drooling, number of times (patients; control group): 11
- Increase in the number of bowel movements, % (patients; control group): 2.0%
- Increase in the number of bowel movements, number of times (patients; control group): 7
- Muscle bundle quivering, % (patients; control group): 8.3%
- Muscle bundle quivering, number of times (patients; control group): 29
- Myosis, % (patients; control group): 3.4%
- Myosis, number of times (patients; control group): 12
- Nausea, % (patients; control group): 4.3%
- Nausea, number of times (patients; control group): 15
- Perspiring, % (patients; control group): 12.1%
- Perspiring, number of times (patients; control group): 43
- Tinnitus, % (patients; control group): 4.0%
- Tinnitus, number of times (patients; control group): 14
- Vomiting, % (patients; control group): 1.2%
- Vomiting, number of times (patients; control group): 6
- cases with side effects (patients; control patients, 69 cases): 34 cases
- cases with side effects, % (patients; control patients, 69 cases, X^2 =3.58, P>0.05): 49.27%
- perspiring and blurred vision vs Huperzine A (patients; perspiring X^2 =5.5, P<0.01, blurred vision X^2 =12.96, P<0.001): more noticeably than Hyperzine A caused perspiring and blurred vision
- IC50 (true cholinesterase; [9]): 0.224 µM

Compound: CNC(=O)Oc1ccc2c(c1)[C@]1(C)CCN(C)[C@@H]1N2C [Physostigmine, reference compound]
- EC50 [1, 8]: 0.245 µM
- Strength of Effect [1]: 1.79
- minimal effective dose ([2]; rats): 0.05 mg/kg
- Strength of Effect ([2]; rats, physostigmine = 1.0): 1.0
- minimal effective dose [3]: 0.12 mg/kg
- effect on electrically stimulated muscle contraction ([3]; iv (Huperzine A 30 μg/kg)): enhanced the rabbit's tibialis muscle contraction amplitude but to a lesser degree than that observed for the rats
- Strength of Effect ([3]; physostigmine = 1.0): 1.0
- shocks required to achieve the learned state (memory) (memory functions of rats): 6.4±3.7 shocks
- IC50 (pseudocholinesterase): 1.12 µM
- Toxic Strength (Mice): 2.25
- Toxic Strength (Rats): 2.08
- LD50 (in vivo [4]): 0.8 mg/kg
- LD50 (in vivo [5]): 2.4 mg/kg
- shocks accepted before achieving the learned state (learning) [6]: 7.9±3.5 shocks

Compound: CCC1[C@H]2Cc3[nH]c(=O)ccc3[C@@]1(N)CC(C)C2 (stereo partly drawn) [tetrahydro-huperzine A, (5R, 9R)-5-amino-11-ethyl-5,6,7,8,9,10-hexahydro-7-methyl-5,9-methanocycloocta[b]pyridin-2(1H)-one]
- IC50 (pseudocholinesterase; [7]): 50.1 µM
- IC50 (true cholinesterase; [9]): 2.51 µM

Compound: Tubocurarine [reference compound]
- block of electrically induced muscle contraction ([2]; tubocurarine 0.3 mg/kg iv, species not separated (rats/rabbits)): completely blocked the electrically induced muscle contraction
